Data taken from US8673371B2, “Composition for treating vitiligo or canities comprising extract from sophora japonica as active ingredient” (Keimyung University Industry Academic Cooperation Foundation, priority 2010, dated 2014).

What was measured:
[1] = Electron donating ability (Blois' method, DPPH)
Experimental: Electron donating ability was measured according to the Blois' method (Blois 1958). Freeze-dried powder of Sophora japonica methanol extract was dissolved in DMSO at concentrations of 100, 500 and 1,000 μg/mL. After taking 1 mL to a test tube and adding 4 mL of 4×10^−4 M DPPH solution, followed by agitating in a water bath of 60° C. for 10 seconds and allowing to stand at room temperature for 20 minutes, absorbance was measured at 525 nm. For the non-extract-treated group, 1 mL of methanol was added instead of the sample. Electron donating ability was calculated from the difference in absorbance relative to the non-treated group. The synthetic antioxidant BHT was used as positive control.

Melan-a cells [2] = experiment: Melanin producing ability; assay type: cell-based, C57BL/6 mouse; details: 12.5 μg/mL
Experimental: Then, after treating again with the Sophora japonica methanol extract, the cells were further cultured for 72 hours. After dissolving melanin with 1 N NaOH solution, absorbance was measured at 490 nm. IBMX was used as positive control.

TRP-2 mRNA = experiment: RT-PCR, expression of TRP-2 mRNA; assay type: cell-based, C57BL/6 mouse; details: 12.5 μg/mL, Melan-a cells
Experimental: (§1) Total RNA was prepared using Trizol reagent (Invitrogen, Caylsbad, Calif.) according to the manufacturer's instructions. 5 μg of total RNA was subjected to reverse transcription with 8 μL of M-MLV RT 5× buffer, 3 μL of 10 mM dNTPs, 0.45 μL of 10,000 U RNase inhibitor, 0.3 μL of 50,000 U M-MLV reverse transcriptase (Promega, Madison, USA) and 1.5 μL of 50 pmol/μL oligo dT (Bioneer, Daejeon, Korea). Single-stranded cDNA was amplified by PCR in a reaction solution containing 4 μL of 5× green Go Taq flexi buffer, 0.4 μL of 10 mM dNTPs, 0.1 μL of 500 U Taq polymerase, 1.2 μL of 25 mM MgCl2 (Promega, Madison, USA) and 0.4 μL of 20 pmol/μL sense and antisense primers of tyrosinase, […] or β-actin. Sequences of the primers used in the PCR and expected PCR product size are shown in Table 1. β-actin was used as internal standard (51° C., 30 cycles), and test substances were tyrosinase (56° C., 28 cycles), TRP-1 (56° C., 28 cycles), TRP-2 (64° C., 28 cycles) and MITF-M (54° C., 30 cycles). The PCR product was analyzed by electrophoresis on 1.2% agarose gel.

tyrosinase mRNA = experiment: RT-PCR, expression of tyrosinase mRNA; assay type: cell-based, C57BL/6 mouse; details: 12.5 μg/mL, Melan-a cells
Experimental: as §1

MITF-M mRNA = experiment: RT-PCR, expression of MITF-M mRNA; assay type: cell-based, C57BL/6 mouse; details: 12.5 μg/mL, Melan-a cells
Experimental: as §1

TRP-1 mRNA = experiment: RT-PCR, expression of TRP-1 mRNA; assay type: cell-based, C57BL/6 mouse; details: 12.5 μg/mL, Melan-a cells, not significant
Experimental: as §1

tyrosinase [3] = experiment: Intracellular tyrosinase activity; assay type: cell-based, C57BL/6 mouse; details: 12.5 μg/mL, Melan-a cells
Experimental: 4-5. […] Then, after removing the medium and washing with PBS, the cells were lysed by adding 200 μL of 1% Triton X-100 solution. The lysed cells were transferred to an e-tube and vortexed on ice with 10-minute intervals. After about 1 hour, centrifuge was carried out at 4° C. and 14,000 rpm for 20 minutes. The supernatant was subjected to tyrosinase activity measurement. Absorbance was measured using a protein assay solution (Bio-Rad, USA), and the protein quantity was calculated. Cell extract containing 40 μg of protein was mixed with the test substance to a total volume of 100 μL. After adding 100 μL of L-DOPA, followed by incubation in a 10% CO2 incubator at 37° C. for 60 minutes, absorbance was measured at 490 nm. IBMX was used as positive control.

Melan-a cells [4] = details: mouse, 48 h
Experimental: Melan-a cells, which are immortalized cells derived from C57BL/6 mouse, were cultured in a 37° C., 10% CO2 incubator using RPMI-1640 medium containing 10% fetal bovine serum (FBS) 1% penicillin/streptomycin (P/S) and 200 nM 12-O-tetradecanoylphorbol 13-acetate (TPA).
The MTT assay is a typical technique of measuring cell viability. Upon absorption into cells, 3-(4,5-Dimethylthiazol-2-yl)-2,5-diphenyltetrazolium bromide (MTT) is reduced by succinate dehydronase in mitochondria to formazan. Thus, accumulation of this substance in cells is a measure of mitochondrial activity or, in a broader sense, cell activity. Melan-a cells were stabilized in RPMI-1640 medium containing 10% FBS, 1% P/S and 200 nM TPA in a 10% CO2 incubator at 37° C. for 48 hours before carrying out experiment. The Melan-a cells were seeded on a 96 well plate (0.5×10^4 cells/well) and cultured in a 10% CO2 incubator at 37° C. for 24 hours. […] After dissolving the cells in a plate shaker for 15 minutes, absorbance was measured at 540 nm using an ELISA reader. Cell proliferation was calculated according to the following equation: Cell proliferation (%)=(Absorbance of extract-treated group/Absorbance of non-extract-treated group)×100.

tyrosinase [5] = biological target: T1, tyrosinase (Mus musculus, UniProt P11344); experiment: Activity of cell-extracted tyrosinase; assay type: biochemical, C57BL/6 mouse; details: 12.5 μg/mL, Melan-a cell extract
T1 construct: the cells were lysed by adding 200 μL of 1% Triton X-100 solution; endogenous in cells; host or cells: Melan-a cells (immortalized C57BL/6 mouse melanocytes)
T1 sequence (P11344 19-533): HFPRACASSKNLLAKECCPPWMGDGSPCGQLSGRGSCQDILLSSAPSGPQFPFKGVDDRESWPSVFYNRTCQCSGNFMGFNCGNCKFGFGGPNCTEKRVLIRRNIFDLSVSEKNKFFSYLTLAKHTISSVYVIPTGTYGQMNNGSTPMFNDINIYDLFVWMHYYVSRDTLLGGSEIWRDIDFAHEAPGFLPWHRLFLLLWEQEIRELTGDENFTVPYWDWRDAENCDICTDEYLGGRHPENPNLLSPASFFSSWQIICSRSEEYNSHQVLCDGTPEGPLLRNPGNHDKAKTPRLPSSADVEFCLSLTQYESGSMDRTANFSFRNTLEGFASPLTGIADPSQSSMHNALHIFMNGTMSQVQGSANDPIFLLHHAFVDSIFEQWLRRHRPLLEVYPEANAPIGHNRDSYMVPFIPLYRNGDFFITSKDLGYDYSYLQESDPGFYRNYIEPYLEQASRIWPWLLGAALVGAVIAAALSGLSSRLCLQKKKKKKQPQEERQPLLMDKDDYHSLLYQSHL
Experimental: After washing with PBS and lysing by adding 200 μL of 1% Triton X-100, the lysed cells were transferred to an e-tube and vortexed on ice with 10-minute intervals. After about 1 hour, centrifuge was carried out at 4° C. and 14,000 rpm for 20 minutes. 50 μL of the supernatant was mixed with 49 μL of 0.1 M phosphate buffer (pH 6.8) and 1 μL of Sophora japonica methanol extract at various concentrations (6.25, 12.5, 25 and 50 μg/mL). After allowing to stand for 1 hour, 100 μL of L-DOPA was added. Then, after incubation in a 10% CO2 incubator at 37° C. for 60 minutes, absorbance was measured at 490 nm. IBMX was used as positive control.

Compound | Electron donating ability, concentration dependence ([1]; 100, 500 and 1,000 μg/mL) | Electron donating ability ([1]; at 1,000 μg/mL) [%] | Higher melanin content compared with the control (Melan-a cells [2]) [%] | Higher expression of TRP-2 mRNA compared with the control (TRP-2 mRNA) [%] | Higher expression of tyrosinase mRNA compared with the control (tyrosinase mRNA) [%] | Higher expression of MITF-M mRNA compared with the control (MITF-M mRNA) [%] | Higher expression of TRP-1 mRNA compared with the control (TRP-1 mRNA) [%] | Higher intracellular tyrosinase activity compared with the control (tyrosinase [3]) [%] | Maximum permissible level (MPL) (Melan-a cells [4]) [µg/mL] | Higher activity of cell-extracted tyrosinase compared with the control (tyrosinase [5]) [%]
Cc1cc(C(C)(C)C)c(O)c(C(C)(C)C)c1 [BHT, 2,6-di-tert-butylated hydroxytoluene] | positive (+) concentration-dependent relationship | 85.0 |  |  |  |  |  |  |  | 
CC(C)Cn1c(=O)n(C)c(=O)c2[nH]cnc21 [IBMX, 3-isobutyl-1-methylxanthine] |  |  | 16.7 | 9 | 0.31 | 74 | 2 | 22.2 | 12.5 | 21.2
